The results in this text go back to patent publication US20100075965A1, “PI3 KINASE INHIBITORS AND METHODS OF THEIR USE” (Novartis AG, priority 2006, published 2010).

Sequence of PI3 K Alpha (P42336 whole entry): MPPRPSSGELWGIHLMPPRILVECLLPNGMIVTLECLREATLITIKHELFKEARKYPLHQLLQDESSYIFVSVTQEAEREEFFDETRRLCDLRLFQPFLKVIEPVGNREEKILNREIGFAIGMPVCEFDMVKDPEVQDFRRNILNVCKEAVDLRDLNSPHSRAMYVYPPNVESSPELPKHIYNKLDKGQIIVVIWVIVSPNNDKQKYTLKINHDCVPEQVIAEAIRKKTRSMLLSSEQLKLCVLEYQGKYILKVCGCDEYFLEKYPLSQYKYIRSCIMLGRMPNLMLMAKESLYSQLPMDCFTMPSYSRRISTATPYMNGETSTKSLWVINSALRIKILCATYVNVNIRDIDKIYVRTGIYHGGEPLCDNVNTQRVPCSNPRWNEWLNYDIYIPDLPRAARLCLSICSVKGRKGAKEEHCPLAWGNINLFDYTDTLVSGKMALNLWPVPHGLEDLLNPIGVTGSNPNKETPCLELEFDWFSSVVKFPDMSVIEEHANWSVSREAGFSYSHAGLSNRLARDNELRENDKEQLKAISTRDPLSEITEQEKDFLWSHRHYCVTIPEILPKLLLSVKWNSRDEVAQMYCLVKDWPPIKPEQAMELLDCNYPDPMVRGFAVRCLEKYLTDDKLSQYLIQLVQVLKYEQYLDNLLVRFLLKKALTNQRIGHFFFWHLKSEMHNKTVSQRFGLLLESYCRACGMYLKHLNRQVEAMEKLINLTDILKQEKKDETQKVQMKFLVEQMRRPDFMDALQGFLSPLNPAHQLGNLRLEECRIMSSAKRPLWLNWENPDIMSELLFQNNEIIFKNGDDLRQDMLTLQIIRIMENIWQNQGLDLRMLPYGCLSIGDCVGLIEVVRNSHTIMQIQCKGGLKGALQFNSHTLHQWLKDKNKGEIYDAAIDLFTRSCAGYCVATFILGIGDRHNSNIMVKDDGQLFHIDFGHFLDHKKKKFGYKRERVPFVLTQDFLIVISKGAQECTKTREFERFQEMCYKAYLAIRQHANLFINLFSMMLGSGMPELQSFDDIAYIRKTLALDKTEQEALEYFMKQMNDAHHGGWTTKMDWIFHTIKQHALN
Sequence of PI3 K Alpha (P27986 whole entry partner): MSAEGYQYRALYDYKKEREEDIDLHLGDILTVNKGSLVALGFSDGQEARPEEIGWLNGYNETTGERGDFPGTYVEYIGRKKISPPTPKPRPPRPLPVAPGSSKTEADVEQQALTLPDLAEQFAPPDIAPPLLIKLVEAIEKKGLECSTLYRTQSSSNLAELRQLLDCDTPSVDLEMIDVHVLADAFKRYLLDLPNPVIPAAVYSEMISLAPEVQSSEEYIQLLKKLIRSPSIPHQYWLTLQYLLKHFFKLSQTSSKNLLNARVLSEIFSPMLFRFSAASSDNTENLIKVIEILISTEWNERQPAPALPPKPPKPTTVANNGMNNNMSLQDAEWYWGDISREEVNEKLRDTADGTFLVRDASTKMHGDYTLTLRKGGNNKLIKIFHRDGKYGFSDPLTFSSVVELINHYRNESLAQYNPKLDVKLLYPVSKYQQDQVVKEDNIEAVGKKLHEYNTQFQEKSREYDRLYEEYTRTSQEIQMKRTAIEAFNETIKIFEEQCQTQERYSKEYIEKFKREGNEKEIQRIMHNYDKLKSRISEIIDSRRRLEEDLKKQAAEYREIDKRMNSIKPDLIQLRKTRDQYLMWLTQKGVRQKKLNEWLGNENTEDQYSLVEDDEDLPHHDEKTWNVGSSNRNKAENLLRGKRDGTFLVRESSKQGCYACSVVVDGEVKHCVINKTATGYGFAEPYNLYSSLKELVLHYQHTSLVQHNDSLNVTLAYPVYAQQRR

The target in one assay is PI3 K Alpha (Homo sapiens, UniProt P42336). The experiment in a line: PI3 kinase phosphorylation assays (homogenous solution phase, one step solid phase, ATP depletion/KinaseGlo). It is filed as biochemical. Particulars: ATP depletion assay; read-out: PI3 K Alpha IC50. On the procedure:
Compounds to be tested are dissolved in DMSO and directly distributed into 384-well flashplates at 1.25 μL per well. To start the reaction, 20 μL of 6 nM PI3 kinase are added into each well followed by 20 μL of 400 nM ATP containing a trace of radiolabeled ATP and 900 nM 1-alpha-phosphatidylinositol (PI). The plates are briefly centrifuged to remove any air gap. The reaction is performed for 15 minutes and then stopped by the addition of 20 μL of 100 mM EDTA. The stopped reaction is incubated overnight at RT to allow the lipid substrate to bind by hydrophobic interaction to the surface of the flashplate. The liquid in the wells is then washed away, and the labeled substrate is detected with scintillation counting.
This method is similar to Assay 1 except that the lipid substrate (1-alpha-phosphatidylinositol (PI)) is first dissolved in a coating buffer and incubated on flashplate at room temperature overnight to allow the lipid substrate to bind by hydrophobic interaction to the surface of the flashplate. Unbound substrate is then washed away. On the day of assay, 20 μL of 6 nM PI3 kinase are added into each well followed by 20 μL of 400 nM ATP containing trace of radiolabeled ATP. Compounds are added together with enzyme and ATP to the lipid-coated plates. The plates are briefly centrifuged to remove any air gap. The reaction is performed for two to three hours. The reaction is stopped by addition of 20 μL of 100 mM EDTA or by immediate plate washing. Phosphorylated lipid substrate is detected by scintillation counting.
Compounds to be tested are dissolved in DMSO and directly distributed into a black 384-well plate at 1.25 μL per well. To start the reaction, 25 μL of 10 nM PI3 kinase and 5 μg/mL 1-alpha-phosphatidylinositol (PI) are added into each well followed by 25 μL of 2 μM ATP. The reaction is performed until approx 50% of the ATP is depleted, and then stopped by the addition of 25 μL of KinaseGlo solution. The stopped reaction is incubated for 5 minutes and the remaining ATP is then detected via luminescence.
As for `Nc1cc(C(=O)Nc2nc3ccc(-c4cnc(N)c(C(F)(F)F)c4)cc3s2)ccn1` [Example 2-36, 2-amino-N-(6-(6-amino-5-(trifluoromethyl)pyridin-3-yl)benzo[d]thiazol-2-yl)isonicotinamide], the IC50 is less than 1000 nM. On to `Nc1cccc(C(=O)Nc2nc3ccc(-c4cnc(N)c(C(F)(F)F)c4)cc3s2)n1` [Example 2-35, 6-amino-N-(6-(6-amino-5-(trifluoromethyl)pyridin-3-yl)benzo[d]thiazol-2-yl)picolinamide], for which the IC50 was less than 10000 nM. With `Nc1ccc(-c2ccc3nc(NC(=O)OCCN4CCCCC4)sc3c2)cn1` [Example 2-20, [6-(6-Amino-pyridin-3-yl)-benzothiazol-2-yl]-carbamic acid 2-piperidin-1-yl-ethyl ester], the IC50 is less than 1000 nM. On to `CC(=O)Nc1nc2ccc(-c3cnc(NC(C)=O)c(C(F)(F)F)c3)cc2s1` [Example 2-22, N-[6-(6-Acetylamino-5-trifluoromethyl-pyridin-3-yl)-bezothiazol-2-yl]-acetamide], for which the IC50 was less than 1000 nM. Still for that read-out and setting: with `CC(=O)Nc1nc2ccc(-c3ccc(NC4CCNCC4)nc3)cc2s1` [Example 2-19, N-{6-[6-(Piperidin-4-ylamino)-pyridin-3-yl]-benzothiazol-2-yl}-acetamide] the figure was less than 1000 nM.

Staying with this assay, now noted: read-out: PI3K Alpha IC50.
Turning to `CC(=O)Nc1cn2cc(-c3cnc(N)c(OC(F)F)c3)ccc2n1` [Example 263, N-(6-(6-amino-5-(difluoromethoxy)pyridin-3-yl)imidazo[1,2-a]pyridin-2-yl)acetamide], the IC50 is less than 1000 nM.

As to `Nc1ncc(-c2ccc3nc(NC(=O)c4cccc(-c5nn[nH]n5)c4)cn3c2)cc1C(F)(F)F` [Example 269, N-(6-(6-amino-5-(trifluoromethyl)pyridin-3-yl)imidazo[1,2-a]pyridin-2-yl)-3-(2H-tetrazol-5-yl)benzamide], the IC50 is less than 1000 nM. For `CC(=O)Nc1cn2c(-c3cnc(N)c(C(F)(F)F)c3)c(-c3cnc(N)c(C(F)(F)F)c3)ccc2n1` [Example 35, N-(5,6-bis(6-amino-5-(trifluoromethyl)pyridin-3-yl)imidazo[1,2-a]pyridin-2-yl)acetamide], the IC50 is greater than 25000 nM.

Take `COc1ccc(C2CCCN2C(=O)Nc2cn3cc(-c4cnc(N)c(C(F)(F)F)c4)ccc3n2)cc1OC` (stereo not shown) [Example 276, N-(6-(6-amino-5-(trifluoromethyl)pyridin-3-yl)imidazo[1,2-a]pyridin-2-yl)-2-(3,4-dimethoxyphenyl) pyrrolidine-1-carboxamide]: the IC50 is less than 1000 nM. Regarding `Nc1ncc(-c2ccc3nc(NC(=O)N4CCC[C@H]4C(=O)O)cn3c2)cc1C(F)(F)F` [Example 49, (S)-1-(6-(6-amino-5-(trifluoromethyl)pyridin-3-yl)imidazo[1,2-a]pyridin-2-ylcarbamoyl) pyrrolidine-2-carboxylic acid], the IC50 was less than 10000 nM. In the case of `Nc1ncc(-c2ccc3nc(NC(=O)[C@H]4CCC(=O)O4)cn3c2)cc1C(F)(F)F` [Example 264, (R)-N-(6-(6-amino-5-(trifluoromethyl)pyridin-3-yl)imidazo[1,2-a]pyridin-2-yl)-5-oxotetrahydro furan-2-carboxamide], the IC50 is less than 1000 nM.

With `CC(=O)Nc1cn2cc(-c3cnc(N)cc3C(F)(F)F)ccc2n1` [Example 22, N-[6-(6-Amino-4-trifluoromethyl-pyridin-3-yl)-imidazo[1,2-a]pyridin-2-yl]-acetamide], the IC50 is less than 10000 nM. On the same count and under the same terms, with `CC(=O)Nc1cn2cc(-c3cnc(N)c(Oc4cccc(F)c4)n3)cc(F)c2n1` [Example 261, N-(6-(5-amino-6-(3-fluorophenoxy)pyrazin-2-yl)-8-fluoroimidazo [1,2-a]pyridin-2-yl)acetamide] the figure was less than 1000 nM; with `CCN(CC)CCCc1c(NC(C)=O)nc2ccc(-c3cnc(N)c(C(F)(F)F)c3)cn12` [Example 17, N-[6-(6-Amino-5-trifluoromethyl-pyridin-3-yl)-3-(3-diethylamino-propyl)-imidazo[1,2-a]pyridin-2-yl]-acetamide], less than 10000 nM; with `Nc1ncc(-c2ccc3nc(NC(=O)N4CCCC4Cc4ccccn4)cn3c2)cc1C(F)(F)F` (stereo not shown) [Example 273, N-(6-(6-amino-5-(trifluoromethyl)pyridin-3-yl)imidazo[1,2-a]pyridin-2-yl)-2-(pyridin-2-ylmethyl) pyrrolidine-1-carboxamide], less than 1000 nM. Still for that read-out and setting: the result for `Nc1ncc(-c2ccc3nc(NC(=O)[C@@H]4CCC(=O)O4)cn3c2)cc1C(F)(F)F` [Example 268] reads less than 1000 nM.

Consider `COc1ccccc1C1CCCN1C(=O)Nc1cn2cc(-c3cnc(N)c(C(F)(F)F)c3)ccc2n1` (stereo not shown) [Example 277, N-(6-(6-amino-5-(trifluoromethyl)pyridin-3-yl)imidazo[1,2-a]pyridin-2-yl)-2-(2-methoxyphenyl) pyrrolidine-1-carboxamide], for which the IC50 is less than 1000 nM.

For the compound `Nc1ncc(-c2ccc3nc(NC(=O)[C@@H](O)CCC(=O)O)cn3c2)cc1C(F)(F)F` [Example 272, (S)-5-(6-(6-amino-5-(trifluoromethyl)pyridin-3-yl)imidazo[1,2-a]pyridin-2-ylamino)-4-hydroxy-5-oxopentanoic acid], the IC50 was less than 1000 nM.

Consider `CC(=O)Nc1cn2nc(-c3cnc(N)c(-c4ccccc4Cl)c3)ccc2n1` [Example 260, N-(6-(6-amino-5-(2-chlorophenyl)pyridin-3-yl)imidazo[1,2-b]pyridazin-2-yl)acetamide], for which the IC50 was less than 1000 nM.

Take `Nc1ncc(-c2ccc3nc(NC(=O)N4CCCC4c4nccs4)cn3c2)cc1C(F)(F)F` (stereo not shown) [Example 275, N-(6-(6-amino-5-(trifluoromethyl)pyridin-3-yl)imidazo[1,2-a]pyridin-2-yl)-2-(thiazol-2-yl)pyrrolidine-1-carboxamide]: the IC50 is less than 1000 nM. In the case of `Nc1ncc(-c2ccc3nc(NC(=O)c4ccccc4C(=O)O)cn3c2)cc1C(F)(F)F` [Example 50, 2-(6-(6-amino-5-(trifluoromethyl)pyridin-3-yl)imidazo[1,2-a]pyridin-2-ylcarbamoyl) benzoic acid], the IC50 was less than 10000 nM.

Consider `CC(=O)Nc1cn2cc(-c3cnc(N)c(C(F)(F)F)c3)cc(C)c2n1` [Example 34, N-(6-(6-amino-5-(trifluoromethyl)pyridin-3-yl)-8-methylimidazo[1,2-a]pyridin-2-yl)acetamide], for which the IC50 is greater than 25000 nM. In the case of `CC(=O)Nc1nc2ccc(-c3ccc(N)nc3)cn2c1Br` [Example 14, N-[6-(6-Amino-pyridin-3-yl)-3-bromo-imidazo[1,2-a]pyridin-2-yl]-acetamide], the IC50 is less than 10000 nM. As for `Nc1ncc(-c2ccc3nc(NC(=O)N4CCCC4c4ccco4)cn3c2)cc1C(F)(F)F` (stereo not shown) [Example 274, N-(6-(6-amino-5-(trifluoromethyl)pyridin-3-yl)imidazo[1,2-a]pyridin-2-yl)-2-(furan-2-yl)pyrrolidine-1-carboxamide], the IC50 was less than 1000 nM. On to `CC(=O)Nc1nc2ccc(-c3cnc(N)c(C(F)(F)F)c3)cn2c1C(C)=O` [Example 20, N-[3-Acetyl-6-(6-amino-5-trifluoromethyl-pyridin-3-yl)-imidazo[1,2-a]pyridin-2-yl]-acetamide], for which the IC50 was less than 10000 nM. For the compound `CC(=O)Nc1cn2cc(-c3cnc(N)c(S(=O)(=O)N4CCC(Oc5ccc(F)cc5)CC4)c3)ccc2n1` [Example 267, N-(6-(6-amino-5-(4-(4-fluorophenoxy)piperidin-1-ylsulfonyl)pyridin-3-yl)imidazo[1,2-a]pyridin-2-yl)acetamide], the IC50 was less than 1000 nM. On to `CC(=O)Nc1cn2cc(-c3cnc(N)nc3N)ccc2n1` [Example 48, N-(6-(2,4-diaminopyrimidin-5-yl)imidazo[1,2-a]pyridin-2-yl)acetamide], for which the IC50 was less than 10000 nM. Regarding `Nc1ncc(-c2ccc3nc(NC(=O)C4CCC(=O)N4)cn3c2)cc1C(F)(F)F` (stereo not shown) [Example 262, N-(6-(6-amino-5-(trifluoromethyl)pyridin-3-yl)imidazo[1,2-a]pyridin-2-yl)-5-oxopyrrolidine-2-carboxamide], the IC50 is less than 1000 nM. Take `N#C/N=C(\N)NCCCC(=O)Nc1cn2nc(-c3cnc(N)c(C(F)(F)F)c3)ccc2n1` [Example 258, (E)-N-(6-(6-amino-5-(trifluoromethyl)pyridin-3-yl)imidazo[1,2-b]pyridazin-2-yl)-4-(2-cyanoguanidino) butanamide]: the IC50 was less than 1000 nM. For the compound `CC(=O)Nc1cn2cc(-c3cnc(N)c(O[C@H](C)C(F)(F)F)n3)cc(F)c2n1` [Example 265, (R)-N-(6-(5-amino-6-(1,1,1-trifluoropropan-2-yloxy)pyrazin-2-yl)-8-fluoroimidazo [1,2-a]pyridin-2-yl)acetamide], the IC50 was less than 1000 nM. In the case of `CC(=O)Nc1cn2cc(-c3cnc(N)c(O[C@@H](C)C(F)(F)F)n3)cc(F)c2n1` [Example 259, (S)-N-(6-(5-amino-6-(1,1,1-trifluoropropan-2-yloxy)pyrazin-2-yl)-8-fluoroimidazo [1,2-a]pyridin-2-yl)acetamide], the IC50 is less than 1000 nM.
